Laboratory results from patent US7354711B2, “Methods for inhibiting immunostimulatory DNA associated responses” (University of Iowa Research Foundation, priority 1997, dated 2008).

Legend:
7TD1 cells = assay: Inhibition of 7TD1 cell growth; assay type: cell-based, mouse
Protocol: One particularly useful cell line for the assay of immunostimulatory DNA action is the mouse-mouse hybridoma plasma cell line 7TD1(ATTC #CRL 1851), which requires exoqenous IL-6 for growth, and has been used to characterize and assay IL-6 (Papadopolous et al., 1995. J. Clin. Lab. Anal. 9:234-7; Krakauer, 1993. J. Immunoassay 14:267-77).
The 7TD1 cells were grown in RPMI 1640 supplemented with 10% fetal bovine serum (heat inactivated at 65° C., 1 hour), 0.3 grams/Liter L-glutamine, 50 milligrams/Liter gentamycin, 0.05 mM 2-mercaptoethanol, and 10 units per milliliter murine IL-6 in a 37° C. humid atmosphere with 5% CO2. Viable 7TD1 cells were counted in a hemocytometer chamber in duplicate after dilution with 0.4% trypan blue.
The 7TD1 cells were incubated for five days and were washed twice with medium to remove IL-6, and resuspended at 2×10^4 per milliliter in medium. Cell counts were performed and the percent inhibition of growth was computed. The term “anti” refers to 40 nanograms/milliliter neutralizing antibody to IL-6.

human mononuclear cells = assay: ODN 1760-induced [3H] thymidine incorporation in human mononuclear cells; assay type: cell-based; settings: unfractionated human peripheral blood cells, four days
Protocol: [^3H] thymidine incorporation (18 hour pulse) was then measured. […] Thymidine incorporation for untreated samples was less than 0.05%. Samples from three donors were averaged, and error bars indicate 1 standard deviation.

WEHI 231 cells [1] = assay: Protection by ODN against thapsigargin-induced DNA fragmentation; assay type: cell-based, mouse; settings: 0.1 μM quinacrine, 10 nM thapsigargin, 24 hours
Protocol: The DNA fragmentation assay was carried out generally as follows. WEHI 231 cells were incubated with 0.5 μCi/milliliter [^3H] thymidine for 3 hours, centrifuged, resuspended in 2 milliliters of fresh medium at 2×10^5/milliliter, and incubated in a 24-well plate with additions as indicated. After incubation for 16-18 hours, 1 milliliter aliquots of the cells were centrifuged, washed with 200 μliters PBS. This suspension was drawn into a pipette tip containing 25 μliters of 2% SDS, and the mixture was immediately ejected into a well of a 0.8% agarose TBE gel containing 0.5 μliter/milliliter ethidium bromide. The gel was electrophoresed for 1 hour at 65 volts, destained in water, and photographed under ultraviolet light. The lanes of the gel were cut into three approximately equal portions. The first portion included the gel well and the first 2 millimeters of the running lane. The second and third pieces were the remainder of the lane. The gel portions were melted in glass scintillation vials and mixed with a 20 milliliter of scintillation cocktail and counted in a scintillation counter. The amount of fragmented DNA (DNA in the second and third gel pieces) was expressed as a percentage of the total counts recovered in the lane. […]

[2] = system: multi-drug resistance pump; assay: Potency with inhibition of the multi-drug resistance pump; assay type: cell-based
WEHI 231 cells [3] = assay: Inhibition of CpG-ODN 1760 protection against α-sIgM-induced inhibition of [3H] thymidine uptake; assay type: cell-based, mouse
Protocol: The assay of [^3H] Thymidine incorporation was carried out as follows. WEHI 231 cells (200 μL at 2×10^5/milliliter, in duplicate or triplicate) were incubated in a 96-well plate (Costar, Cambridge Mass.). Additions were made as indicated. After incubating for 16 hours, 0.5 μCi [methyl-^3H] thymidine (2 Ci/millimole, DuPont NEN, Boston Mass.) was added to each well, and the cells were incubated for another 4 hours. Cellular DNA was then captured onto glass fiber filters (Whatman 934AH) using a cell harvester (Brandel, Gaithersberg Md.). The filters were dried, placed into plastic scintillation vials with 10 milliliters of scintillation cocktail (EconoSafe, Research Products International, Mount Prospect Ill.), and counted in a liquid scintillation counter (Beckman LS-3133 T). The ^3H recovered on the filter was expressed as a fraction of the ^3H added.
Referring to experiments summarized in FIG. 1, WEHI 231 cells (ca. 2×10^5 per milliliter) were incubated for 16 hours at 37° C. with 10 μgrams/milliliter α-sIgM, 6 μgrams/milliliter ODN 1760, and the indicated concentration of the compound. After 16 hours, 0.5 μCi [^3H] thymidine was added. After 4 more hours incubation, the cellular DNA was harvested onto glass fiber filters. The dry filters were counted in a liquid scintillation counter.
Each experimental point was the mean of at least duplicate measurements.
Referring to the experiments summarized in FIG. 3, 10 μgrams/milliliter α-sIgM and the indicated concentrations of ODN 1760 and quinacrine were added simultaneously to WEHI 231 cells. Thymidine incorporation was estimated at 16 hours as described for Example 1.
Referring to the experiments summarized in FIG. 4, WEHI 231 cells were incubated with α-sIgM and ODN 1760. At times thereafter 0.1 μM quinacrine was added (data shown in the left three bars). Cells were incubated with 10 μgrams/milliliter (α-sIgM and ODN 1760 (6 μgrams/milliliter, phosphorothioate or a phosphodiester ODN with the same sequence as 1760 (PD ODN) (30 μM at time 0 hours and 8 hours; data represented in right six bars in FIG. 4). [^3H] thymidine incorporation was estimated at 16 hours.
The symbol — indicates no change. Me and Et indicate —CH3 and —CH2CH3 respectively. Aromatic substituents are in the para position except as indicated. The activity is —log10 of the concentration (M) required for half maximal inhibition of CpG-ODN effect on [^3H] thymidine uptake in the presence of α-sIgM.

WEHI 231 cells [4] = assay: CpG-ODN-induced IL-6 synthesis (ELISA); assay type: cell-based, mouse; settings: 10 nM
Protocol: The assay of IL6 was generally carried out as follows. […] After 24 hours, the IL-6 content of the supernatant was assayed by enzyme-linked immunoassay using two monoclonal antibodies in a sandwich technique as described by the manufacturer, using standards supplied (PharMingen, San Diego Calif.).

[5] = 6 μg/mL ODN 1760, 0.1 μM compound
[6] = 6 μg/mL ODN 1760, 0.3 μM compound
[7] = 6 μg/mL ODN 1760, 1 μM compound
[8] = 10 μg/mL IL-6 + 0.1 μM compound
[9] = 10 μg/mL IL-6 + 0.3 μM compound

CCN(CC)CCCC(C)Nc1c2ccc(Cl)cc2nc2ccc(OC)cc12 (stereo not drawn) [quinacrine]
7TD1 cells/μL (7TD1 cells; [5]): 20 cells/μL | % Growth Inhibition (7TD1 cells; [5]): 95% | 7TD1 cells/μL (7TD1 cells; [6]): 20 cells/μL | % Growth Inhibition (7TD1 cells; [6]): 95% | 7TD1 cells/μL (7TD1 cells; [7]): 15 cells/μL | % Growth Inhibition (7TD1 cells; [7]): 96.3% | 7TD1 cells/μL (7TD1 cells; [8]): 707 cells/μL | % Growth Inhibition (7TD1 cells; [8]): 20.2% | 7TD1 cells/μL (7TD1 cells; [9]): 595 cells/μL | % Growth Inhibition (7TD1 cells; [9]): 32.9% | 7TD1 cells/μL (7TD1 cells; 10 μg/mL IL-6 + 1 μM compound): 587 cells/μL | % Growth Inhibition (7TD1 cells; 10 μg/mL IL-6 + 1 μM compound): 33.8% | Effect on IL-6-induced growth (7TD1 cells; 7TD1 cells, IL-6): little effect | Effect on growth stimulation by CpG-ODN (7TD1 cells; 7TD1 cells, ODN 1760): blocked | Effect on ODN 1760-induced thymidine incorporation (FIG. 8) (human mononuclear cells): inhibited | Block of ODN 1760 protection against thapsigargin-induced DNA fragmentation (FIG. 7) (WEHI 231 cells [1]): blocked the protective effect | Change of potency on inhibition of the multi-drug resistance pump [2]: magnified | Block of CpG-ODN action on subsequent addition (FIG. 4) (WEHI 231 cells [3]; 0.1 μM quinacrine added 8 hours after the CpG-ODN): blocked the action of CpG-ODN | Block of the action of phosphodiester ODN (FIG. 4) (WEHI 231 cells [3]; 0.1 μM quinacrine, PD ODN 30 μM at 0 and 8 hours): effective in blocking | vs. Chloroquine, fold (WEHI 231 cells [3]; Table 3, 9-aminoacridines): 7.76 fold | Activity,-log10 (concentration (M) for half maximal inhibition of CpG-ODN effect on [3H] thymidine uptake in the presence of α-sIgM) (WEHI 231 cells [3]; Table 3, 9-aminoacridines, WEHI 231 cells): 7.85 | Inhibition of the CpG-ODN effect (FIG. 1) (WEHI 231 cells [3]; at nanomolar concentrations, 10 μg/mL α-sIgM, 6 μg/mL ODN 1760): completely inhibited | Inhibition at increasing concentrations of ODN 1760 (non-competitive kinetics, FIG. 3) (WEHI 231 cells [3]; range of concentrations of ODN 1760 and quinacrine, 10 μg/mL α-sIgM): increasing the concentration of ODN 1760 did not overcome the inhibitory effect | Reversal of ODN 1760 effect on IL-6 elaboration (WEHI 231 cells [4]): completely reversed
